Test results as given in the METLIN SMRT retention time set (Domingo-Almenara et al. 2019).

Assay: gradient 5% acetonitrile 3 min, to 50% in 2 min, to 85% in 15 min, held 3 min, 100 µL/min
Conditions: column: Zorbax Extend-C18 2.1 x 50 mm; eluents: water / acetonitrile, 0.1% formic acid
How it was run: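 Standards, all pure, were combined into mixtures of ~100 molecules and run at 100 μL/min on a Zorbax Extend-C18 column (2.1 × 50 mm, 1.8 μm) with water and acetonitrile, each containing 0.1% formic acid. A coupled quadrupole time-of-flight mass spectrometer operated in positive and negative ionization mode. Retention time values come from computationally picked adduct peaks, each inspected manually.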

| Structure (SMILES) | RP-LC retention time |
| --- | --- |
| CCOC(=O)c1[nH]c(C)c(CCC(=O)N2CCCC(C(=O)NC(C)C)C2)c1C (centres undefined) | 723 s |
| CNC(=O)C1CCCN(c2nc3ncn(CC(=O)Nc4c(C)cc(C)cc4C)c(=O)c3s2)C1 (centres undefined) | 661 s |
| Cc1sc(C)c(S(=O)(=O)N2CCC(C)CC2)c1-c1cc(C(F)(F)F)on1 | 1320 s |
| CCOC(=O)C(=O)NCC1CN(c2ccccc2)C(=O)O1 (centres undefined) | 647 s |
| CN(C)c1ccc2ncc(=O)n(C)c2n1 | 728 s |
| O=C(NCc1ccc(F)cc1Cl)C1CCc2nc(N3CCOCC3)ncc2C1 (centres undefined) | 768 s |
| COc1ccc(NC(=O)N2[C@H]3CC[C@@H]2c2cnc(C)nc2C3)cc1F | 671 s |
| Cc1cc(C)cc(-n2ccn(Cc3nc(-c4ccc(Cl)cc4)no3)c(=O)c2=O)c1 | 960 s |
| Cc1cnc(CC2CCN(C(=O)C3CCC3)C2)n1C(C)C (centres undefined) | 585 s |
| NS(=O)(=O)c1ccc(NC(=O)CSc2ccc3ccccc3n2)cc1 | 736 s |
| CCCN(CCC)CCCNC(=O)C1CCCN(c2nnc(N3CCCC3=O)s2)C1 (centres undefined) | 584 s |
| O=C(CSc1ccc(NC(=O)C2CC2)nn1)NCc1cccs1 | 652 s |
| Cc1cc(C)n(-c2nc(-c3ccc(Cl)cc3)cs2)n1 | 1420 s |
| CC1CCCN(C(=O)c2cn(-c3cc(N4CCOCC4)ncn3)cn2)C1 (centres undefined) | 709 s |
| CCCCNC(=O)C1CCCN(c2cc(=O)n(C)c(=O)n2CC)C1 (centres undefined) | 759 s |
| O=C(Cc1ccsc1)N1CCN(c2ncnc3c2CCC3)CC1 | 594 s |
| O=C(NCC(F)(F)F)c1ccc(=O)[nH]c1 | 534 s |
| Cc1cnc(C2CC2)n1C1CCCN(C(=O)NC(C)C)C1 (centres undefined) | 587 s |
| CCN(Cc1cc(Nc2nc(C)cn3c(-c4cn[nH]c4)cnc23)sn1)C(C)(C)CO | 682 s |
| CC(C)CN1CCn2cc(S(=O)(=O)Nc3ccc(F)cc3Cl)cc2C1=O | 838 s |

| Structure (SMILES) | RP-LC retention time |
| --- | --- |
| CN(C)CCNc1nnc(-c2nc(-c3ccc(F)cc3)no2)c2ccccc12 | 687 s |
| O=C(c1cc(-c2ccccc2)n[nH]1)N1CCC2(CC1)N=C(c1ccccc1)NO2 | 785 s |
| Cc1cnn(Cc2c(C(=O)N3C[C@@H](C(N)=O)[C@H](c4n[nH]c(C)n4)C3)noc2C)c1 | 590 s |
| CCNC(=O)N1[C@H]2CC[C@@H]1c1cnc(-c3ccc(F)cc3)nc1C2 | 768 s |
| O=C(CNC(=O)c1ccc(=O)[nH]c1)Nc1ccc(-n2cnnn2)cc1 | 544 s |
| O=C(c1cncc(Br)c1)N1CCC(OCC2CC2)C1 (centres undefined) | 730 s |
| CCc1cc(=O)n(CC(=O)NCCc2ccc(Cl)cc2)c(N2CCOCC2)n1 | 803 s |
| COc1cccc(S(=O)(=O)N2CCC3(CC2)NCCCN=C3NC2CCCCC2)c1 | 759 s |
| CCC(=O)N1c2ccc(S(=O)(=O)N3CCCCC3)cc2CC1C(=O)NC1CCCCC1 (centres undefined) | 895 s |
| O=C(N[C@H]1C[C@@H]2C[C@H]1CN2S(=O)(=O)c1ccc2c(c1)CCC2)c1ccccc1 | 933 s |
| Cc1nnc(-c2ccc3ccn(CC(=O)NC(C)(C)C)c3c2)o1 | 718 s |
| O=C([C@@H]1C[C@H](F)CN1C(=O)Nc1ccccc1)N1CCCCC1 | 653 s |
| Cc1ccc(-c2cn3ccccc3n2)cc1NS(=O)(=O)c1ccc(Br)cc1 | 710 s |
| Cc1nccn1Cc1nc(-c2ccc(F)cc2)no1 | 614 s |
| Cc1ccccc1-n1c(=O)c2sccc2n(Cc2nc(-c3ccc(OC(C)C)cc3)no2)c1=O | 1120 s |
| O=C(C1CCN(c2cncnc2N2CCCCC2)CC1)N1CCN(C2CCCCC2)CC1 | 557 s |
| Fc1ccc(-c2noc(Cc3nc(-c4ccc(Br)cc4)cs3)n2)cc1 | 1340 s |
| COc1ccc(-c2ccc(=O)n(CCCNS(=O)(=O)/C=C/c3ccccc3)n2)cc1 | 830 s |
| CCOC(=O)C1CCN(C(=O)C(C)n2c(=O)c(C(F)(F)F)nc3ccccc32)CC1 (centres undefined) | 921 s |

Continued, values first:

| RP-LC retention time | Structure (SMILES) |
| --- | --- |
| 893 s | CC(C)(C)C(=O)N1CCC(C(=O)Nc2nnc(CCCc3ccccc3)s2)CC1 |
| 847 s | Cc1ccc(CNS(=O)(=O)c2cc3c(s2)CCN(C(=O)C2CC2)C3)cc1 |
| 970 s | Cn1cnc([N+](=O)[O-])c1S(=O)(=O)Oc1cccc2ccccc12 |
| 883 s | CC1(C)C(=O)Nc2ccc(S(=O)(=O)N3CCC(c4noc(-c5ccccc5)n4)C3)cc21 (centres undefined) |
| 924 s | COc1ccc(CNC(=O)c2csc(-c3cn(C)c4ncccc34)n2)c(OC)c1 |
| 815 s | CN1C(=O)C2CCCCN2c2ccc(C(=O)NCCc3ccco3)cc21 (centres undefined) |
| 962 s | CC(C)c1cccc(NC(=O)Cn2cc(-c3nc(-c4cccs4)no3)ccc2=O)c1 |
| 720 s | COc1cc([C@@H]2c3cc4c(cc3[C@H](O)[C@@H](CO)[C@@H]2C(=O)N2CCN(c3ccc(F)cc3)CC2)OCO4)cc(OC)c1OC |
| 776 s | C=CCNC(=O)c1cn(-c2ncccc2-c2nc(C(C)(C)C)no2)cn1 |
| 680 s | COC(=O)c1ccc(NCc2cc(O)ccc2O)cc1 |
| 748 s | COc1cccc(C(C)NC(=O)CN2C(=O)NC3(CCCCC3)C2=O)c1 (centres undefined) |
| 804 s | Cn1cccc1C(=O)NCCn1c(=O)n(Cc2ccc(F)cc2)c2cccnc21 |
| 585 s | Cn1cnc2ccc(-c3noc(CNC(=O)c4cccs4)n3)cc21 |
| 968 s | CCOC(=O)c1noc2ncnc(N3CCN(c4ccccc4)CC3)c12 |
| 788 s | O=C(O)c1cn(Cc2ccccc2)c(=O)c2ccccc12 |
| 818 s | CCc1ccc(NC(=O)CN2CCN(Cc3ccc(F)cc3)C(=O)C2=O)cc1 |
| 664 s | COc1ccc(C(C)NC(=O)Cc2c[nH]c3ncccc23)cc1OC (centres undefined) |
| 822 s | CCn1cnc(S(=O)(=O)N2CCC(C(=O)Nc3ccc(C)c(Cl)c3)CC2)c1 |
| 596 s | Cc1cccc2c(C(N)=O)cc(=O)[nH]c12 |
| 939 s | O=C(C1=NN(Cc2ccccc2F)c2ccccc2S1(=O)=O)N1CCCCC1 |
| 852 s | COc1cccc(OC)c1C(=O)Nc1cc2c(cc1S(=O)(=O)c1ccc(F)cc1)n(C)c(=O)n2C |
| 840 s | COc1ccccc1-c1nnc(-c2cccc(S(=O)(=O)N(C)C)c2)o1 |
| 978 s | Cc1ccsc1C(=O)Nc1ccc(SCc2nnc(-c3ccc4c(c3)OCO4)o2)cc1 |
| 806 s | COc1ccc(C(=O)N2CCc3ccc(C(=O)NCc4cccs4)cc32)cc1 |
| 762 s | O=C(Nc1nc2c(s1)CN(C(=O)c1cnn(-c3ccccc3)n1)CC2)C1CCCO1 (centres undefined) |

| RP-LC retention time | Structure (SMILES) |
| --- | --- |
| 794 s | Cc1cc(C)c(C(=O)N2CCC(CC(=O)NCc3ccccc3C)CC2)[nH]1 |
| 655 s | Cc1ccc(Cn2c(CN3CCC(C(=O)NCc4ccccn4)CC3)cc3ccccc32)cc1 |
| 965 s | CCNC(=O)N(CCCOC)CC(=O)N1CCc2sccc2C1COc1ccc(Cl)c(C)c1 (centres undefined) |
| 841 s | COc1cccc(NC(=O)Cn2c(C(F)(F)F)nc3cc4c(cc32)OCCO4)c1 |
| 811 s | Cc1ccc(Nc2nc(C)cc(N3CCN(C(=O)Nc4ccc(F)c(Cl)c4)CC3)n2)cc1 |
| 865 s | CCC1Oc2ccc(Cl)cc2N(CC(=O)N2CCN(Cc3noc4ccccc34)CC2)C1=O (centres undefined) |
| 882 s | CCCN1C(=O)CCc2cc(NC(=O)c3cc4ccccc4[nH]3)ccc21 |
| 1230 s | Cc1cccc(CNC(=O)c2cc(C(C)(C)C)n3nccc3n2)c1 |
| 946 s | Cc1nn(C(C)C(=O)NC2CCCCC2)c(=O)c2c(C)n(-c3ccccc3)nc12 (centres undefined) |
| 714 s | COc1ccc(NC(=O)N2CC=C(c3cn(C)c4ncccc34)CC2)cc1OC |
| 727 s | O=C(CCNc1c(-c2ccc(F)cc2)nc2cnccn12)Nc1ccc2c(c1)OCO2 |
| 823 s | COc1ccccc1-c1nnc2sc(-c3cc(C)on3)nn12 |
| 611 s | COCCNc1c(-c2ccccc2)nc2sc(C(=O)NCc3cccnc3)c(C)n12 |
| 751 s | COc1ccc(C2Cn3cnc(C(=O)N4CCC(C(=O)Nc5cc(C)cc(C)c5)CC4)c3CO2)cc1 (centres undefined) |
| 688 s | Cn1c(-c2cccc(C(=O)NCc3cccs3)c2)nc2cccnc21 |
| 986 s | CC(=O)Nc1ccc(NC(=S)NC(=O)c2ccc(C(C)(C)C)cc2)cc1 |
| 854 s | CC1CCc2nc3ncn(CC(=O)Nc4cccc(Br)c4)c(=O)c3cc2C1 (centres undefined) |
| 951 s | COc1cc(F)ccc1-c1ccnc2nc(CCc3ccccc3)nn12 |
| 788 s | COc1ccc(NC(=O)c2c(C)oc3nc(C)nc(N4CCOCC4)c23)cc1Cl |
| 744 s | CN(c1ccccc1)S(=O)(=O)c1ccc(C(=O)Nc2nnc(C3=COCCO3)o2)cc1 |
| 713 s | CN1C(=O)Cc2ccccc2C1C(=O)NCc1ccccc1F (centres undefined) |
| 816 s | COC(=O)c1ncn2c1C(=O)N(Cc1ccccc1F)C(C)(C(=O)NC1CCCCCC1)C2 (centres undefined) |
| 944 s | CCn1c(C(=O)N2CCOCC2)cc2c(-c3cccs3)nn(-c3ccccc3)c21 |
| 859 s | COc1ccc(CNC(=O)c2nnn(Cc3nc(-c4ccccc4)oc3C)c2N)cc1OC |
| 884 s | Cc1ccc(NC(=O)C2CC(=O)N(CCc3c[nH]c4ccc(Cl)cc34)C2)cc1 (centres undefined) |
